In the case of `COc1ccc(-c2cccc(-c3nc(=O)c4ccccc4s3)n2)cc1`, the melting point lay in the range of 200 to 201 °C.
Molecule `CCC1(C)CC(N(CCN(C(C)=O)C2CC(C)(CC)NC(C)(CC)C2C)C(C)=O)C(C)C(C)(CC)N1` (centres undefined) gave a melting point of 173 to 175 °C.
Next, `CN(Cc1ccccc1)c1ccc(C(=O)c2ccccc2)cc1N`: 93 to 94 °C.
The result for `CC1(C)C=C(N2CCNCC2=O)c2cnccc2O1` reads 109 to 110 °C.
`COC(=O)c1cccc(-c2ccccc2)c1S(C)(=O)=O` showed a melting point of 101 to 115 °C.
Next, `Nc1cc(-c2ccccc2)ccc1Cl`: 91 to 92.5 °C.
In turn, `CCN(Cc1cc(Br)ccc1OCC1CC1)c1ccc(C(=O)O)nn1` gave a melting point of 73 to 80 °C.
Next, `CC(C)CCn1c(=O)[nH]c2cc(Cl)cc(Cl)c2c1=O`: 227 to 229 °C; `COc1ccc(CC(SC)C(N)=O)cc1C(=O)NCc1ccc(C(F)(F)F)cc1` (centres undefined): 152 to 154 °C; `Cc1ccc(C=Cc2ccc(Br)cc2)cc1`: 215 °C.
The result for `CCN(CC)CCN(c1ccc(C(=O)c2ccccc2)cc1)S(C)(=O)=O` reads 74 to 76 °C; that for `CCCCCCOc1cc(C)ccc1C(=O)c1cccc(C(=O)O)c1`, 118 °C.
Next, `c1ccc(CN2CCC3(CC2)SCCS3)cc1`: 51 to 53 °C.
As to `CCCCCC(CC(=O)OC)c1cc(C=O)c(OC)cc1OC` (centres undefined), the melting point was in the range of 110 to 112 °C.
`CC(C)CCN1CNC(=O)C12CCNCC2`: the melting point lay in the range of 103 to 105 °C.
The result for `OC1CCc2[nH]c3ccccc3c2C1` (centres undefined) reads 140 °C.
In turn, `COc1ccc(CCOc2cccc(-c3cccc(N)c3)n2)cc1OC` gave a melting point of 103 to 104 °C.
Next, `CCC1(CC)C(=O)N(C(C)(C)CC(C)(C)C)CC(C)(C)N1OC(C)(C)C#N`: 49 to 53 °C; `CC1Cc2cc(F)ccc2C1=Cc1ccc(S(C)(=O)=O)cc1` (centres undefined): 177 °C; `CCCC(C)C(=O)Nc1cccc(O)c1` (centres undefined): 136 to 137 °C.
`O=C(/C=C/C=C(c1cccc([N+](=O)[O-])c1)c1cccc([N+](=O)[O-])c1)NCCCCc1cccnc1` showed a melting point of 158 to 159 °C.
`CC1(C)CCCC2(C)C1CCC(C)(O)C2CCO` (centres undefined) yielded a melting point of 130 to 132 °C.
For the molecule `Cc1cc(Nc2cc(-c3c(C)cccc3C)nc(Sc3ccc4ccccc4c3)n2)[nH]n1`, the melting point was 148 to 152 °C.
As to `O=S(=O)(NN=C(Cl)c1cc(Cl)ccc1Cl)c1ccccc1`, the melting point lay within 133 to 135 °C.
Next, `Nc1nc2ccccc2n1-c1cccc(-c2cccs2)c1`: 142 to 144 °C; `C[Si](C)(C)OC(Cn1ccnc1)(Cn1ccnc1)c1ccc(F)cc1F`: 134 to 136 °C; `CC(=O)OCC(=O)C12OCOC1CC1C3CCC4=CC(=O)C=CC4(C)C3(Cl)C(O)CC12C` (centres undefined): 244 to 245 °C.
Regarding `O=C(Nc1cccc(F)c1F)c1ccc(-n2nc(C(F)(F)F)cc2C2CC2)c(F)c1`, the melting point lay in the range of 175 to 180 °C.
The result for `CCCOc1ccccc1C(=O)Nc1cnccc1C(N)=O` reads 181 to 183 °C; that for `O=C(O)CCCCCOc1ccc([N+](=O)[O-])cc1`, 104 to 107 °C.
For the molecule `Clc1nc2ccccc2cc1C=C1CCCC1`, the melting point lay within 84 to 86 °C.
The result for `CC(C)(C)OC(=O)Nc1ccc2ccc(C#N)cc2c1Br` reads 139 to 141 °C.
Next, `COc1ccc(CN2C(=O)C3(COc4cc5c(cc43)OCCO5)c3ccccc32)cn1` (centres undefined): 161 to 162 °C; `COc1cc(-c2csc(N(CCC3CCCCC3)C(=O)c3cc4ccccc4n3CC(=O)O)n2)c(OC)cc1C`: 198 °C; `COc1ccc(Cl)cc1C(=O)Nc1ccc(CCC(=O)O)cc1`: 188 to 190 °C.
The result for `CCC(O)(CC)Cc1ccc(NC(=O)/C=C/c2cnn(C)c2-c2ccc(F)cc2)cc1` reads 150 to 151 °C; that for `Cn1nc(-c2ccncc2)nc1-c1ccncc1`, 168 to 170 °C.
The molecule `CN(C)C=NS(=O)(=O)c1cc2ccncc2s1` came in with a melting point of 169 to 171 °C.
The result for `O=C1Nc2ccccc2SC1CCCl` (centres undefined) reads 133 to 134 °C.
Molecule `CCCCOCCOc1ccc(-c2ccc3c(c2)C=C(C(=O)O)CCN3CC2CCC2)cc1` had a melting point of 110 to 112 °C.
The result for `Cn1c2c(c3cc(Cl)ccc31)CCC(C(=O)O)C2` (centres undefined) reads 259 to 260 °C; that for `O=S(=O)(Nc1ccc(-c2nn(S(=O)(=O)c3ccccc3)c3c2Cc2ccccc2-3)cc1)c1ccccc1`, 251 to 252 °C.
Next, `Cc1cnc(NC(=O)C2c3ccccc3Oc3ccccc32)o1`: 217 to 220 °C; `NC(=O)CCc1ccc(Oc2ccc3c(c2)S(=O)(=O)N=C2CCCN23)cc1`: 178 to 183 °C; `CCCCCCCCNC(=O)c1ccc(O)c(O)c1`: 118 to 120 °C.
On to `Cc1nc(-c2ccc3c(=O)n(CC(C)C)c(CNC(=O)OC(C)(C)C)c(-c4ccccc4)c3c2)sc1C(N)=O`, for which the melting point lay within 227 to 228 °C.
`OCc1cc2cc(OCc3ccccc3)ccc2[nH]1` showed a melting point of 106 to 107 °C.
Next, `O=Cc1c2c(cn1Cc1ccccc1)OCCO2`: 75 °C.
In the case of `COc1cc(CCc2ccc(N)cc2)cc(OC)c1OC`, the melting point lay in the range of 84 to 85 °C.
With `CCOC(=O)C1(Cc2ccc(OC)c(OC)c2)C(=S)NCC1c1ccc(OC)c(OC)c1` (centres undefined), the melting point is 166 to 169 °C.
The result for `CN(Cc1cc(C(F)(F)F)cc(C(F)(F)F)c1)C(=O)c1c(-c2ccc(F)cc2)c2ccc(=O)n(C)c2c(=O)n1C` reads 210 to 212 °C; that for `CN1C(C)(C)CC(OC(=O)NNC(=O)C(=O)NC2CC(C)(C)NC(C)(C)C2)CC1(C)C`, 165 to 170 °C; that for `Fc1cccc(Cl)c1-c1nnc2ccc(C(F)(F)F)cn12`, 170 to 171 °C.
With `Cc1nn(Cc2ccc(Cl)cc2)c(C)c1CC(=O)O`, the melting point was 173 to 174 °C.
The molecule `CCCN(c1cccc(-c2ccnc3c([N+](=O)[O-])cnn23)c1)S(=O)(=O)c1ccccc1` yielded a melting point of 154 to 156 °C.
Next, `Cc1cc(N2N=CCNC2=O)cc(Cl)c1Cc1ccc(Cl)cc1`: 209 to 210 °C; `CCCc1nc2c(N)nc3ccccc3c2n1CCCC(=O)N(C)OC`: 163 to 165 °C; `CNC(=O)c1c(-c2ccccc2)noc1CC(=O)c1ccccn1`: 146 to 149 °C.
Next, `CC1CCN(C(=O)C2Cc3ccccc3N2c2ccc(=O)n(C)n2)C1` (centres undefined): 150 to 154 °C; `Cc1ccccc1S(=O)(=O)NC1CCc2sc(-c3ccc(=O)[nH]n3)cc2C1` (centres undefined): 242 to 247 °C.
As to `O=C(O)c1ccc(Sc2ccc(C(=O)O)c(C(=O)O)c2)cc1C(=O)O`, the melting point lay in the range of 202 to 203 °C.
For the molecule `O=c1c(Cl)c(Cl)cnn1-c1cc([N+](=O)[O-])c(Cl)cc1F`, the melting point came out at 168 °C.
The result for `CCN(CC)CCNC(=O)c1cc(NS(C)(=O)=O)c(Cl)cc1OC` reads 123 to 124 °C; that for `O=C1Nc2ccc(-c3cccc([N+](=O)[O-])c3)cc2C2(CCCCC2)O1`, 245 to 246 °C.
The result for `Cc1c(-c2cccc(C#N)c2F)sc2nc(N)[nH]c(=O)c12` reads 350 to 370 °C.
Regarding `CCCCOc1ccc(NC(=O)N(C)c2cccc(-c3ccc(CCC(=O)O)cc3)c2)cc1`, the melting point was 165 °C.
The molecule `Nc1ccc(C(=O)N(CCN2CCC(C(=O)c3ccc(F)cc3)CC2)c2cccc(N)c2)cc1` showed a melting point of 108 to 110 °C.
For `Cc1nc2cccc(OCC(C)(C)C(=O)NC3CCC3)c2c(N)c1C(=O)O`, the melting point lay in the range of 183 to 187 °C.
As for `COc1ccc(C(C)N(C)CCCOc2ccc(S(=O)(=O)c3c(C(C)C)n(C)c4ccccc34)cc2)cc1OC` (centres undefined), the melting point was determined as 96 °C.
As for `O=S(=O)(c1ccccc1F)N1CCCC1c1ccc(F)cc1` (racemic), the melting point worked out at 91 °C.
For `CCCc1[nH]c2cc(C(=O)OC)ccc2c1C(=O)C=C(C)C`, the melting point fell in the range of 146 to 147 °C.
The result for `CNc1cc(Br)nc(S(=O)(=O)c2ccc(N)cc2)c1` reads 158 to 160 °C; that for `CC(C)(CO)c1ccc(Br)cc1`, 46.5 to 48 °C.
The molecule `CC(C)c1occc1S(=O)(=O)c1ccc(O)cc1` displayed a melting point of 131 °C.
In the case of `O=C1CN(CCCBr)Oc2ccccc21`, the melting point fell in the range of 90 to 92 °C.
The result for `FC(F)(F)Oc1ccc(C=Cc2nc(CNc3ccc(CCCCn4ccnn4)cc3)co2)cc1` reads 103 to 105 °C; that for `Cc1nc(OCc2cccc(C(F)(F)F)c2)c(C(=O)Nc2ccccc2)s1`, 113 °C; that for `CCCn1nc2c(-c3ccccc3)cccc2c1-c1ccc(O)cc1`, 207 to 208 °C.
In turn, `CCCC(CCC)n1nnc2c(Cl)nc(C)cc21` came in with a melting point of 90 to 91 °C.
Take `c1cnc2c(c1)Cc1ncccc1-2`: the melting point is 85 °C.
As for `COc1cc(CO)ccc1OCc1csc(N2CCOCC2)n1`, the melting point fell in the range of 94 to 95 °C.
Next, `Clc1ccc(Nc2nnc(Cc3ccncc3)c3cccnc23)cc1`: 196 to 197 °C.
Turning to `N#Cc1cccc(C2=NN(C(=O)Nc3ccc(OC(F)(F)F)cc3)CCC2n2cc(Cl)cn2)c1` (centres undefined), the melting point is 216 °C.
The result for `CCOP(=O)(OCC)C(CCc1cc(C)nc2cc(-c3ccccc3)nn12)P(=O)(OCC)OCC` reads 51 to 52 °C.
`COc1ccc(N=C(N)N(C)C)c(N2CCOCC2)c1` returned a melting point of 135 °C.
Turning to `CC(C)[C@@H](C(=O)N1C(=O)O[C@@H](c2ccccc2)[C@H]1C)[C@@H](O)[C@@H]1OC(C)(C)N(C(=O)OC(C)(C)C)[C@H]1CC1CCCCC1`, the melting point is 97 °C.
The result for `CCCCCC(O)CCC1CCC(=O)C1CCCCC=CC(=O)O` (centres undefined) reads 71 to 75 °C; that for `CC(=O)NCc1cncn1C1c2ccccc2CCC1(C)C` (centres undefined), 166 °C; that for `O=C(O)C1Oc2cc(Cl)c(S(=O)(=O)c3cccc(Cl)c3)cc2O1` (centres undefined), 151 to 153 °C.

As a reminder, the melting point is the temperature of the solid-liquid transition.

For the origin of these results see a melting point compilation (Tetko et al.; mined from patent text by program, amines drawn as free bases though some values may be those of a salt).
